# Where two headings read alike, the source gives them in different places.
# Legend:
# J774 mammalian cells = test: cytotoxicity to J774 cells; assay type: cell-based; conditions: Mus musculus
# Protocol: This allowed a simplified method for comparing the different assays being simultaneously run. Additionally, each compound was also tested for cytotoxicity using mammalian J774 cell lines in a 96-well plate format.^12-14, 16
# [1] = test system: malarial strain W2 (pyrimethamine and chloroquine-resistant); test: in vitro antimalarial activity against multidrug resistant strain W2; assay type: cell-based, P. falciparum
# [2] = test system: malarial strain TM90-C2B (mefloquine, chloroquine, atovaquone, and pyrimethamine-resistant); test: microbe, parasite or virus in culture; assay type: cell-based, P. falciparum; conditions: for RI: RI = EC50 TM90-C2B/EC50 W2
# Description: Ideally, the RI of a compound should lie between 0.3 and 3.0 in order to avoid rapidly inducing resistance in the parasite. […]
# [3] = test system: P. berghei sporozoites expressing luciferase; test: in vitro liver stage activity, luciferase sporozoites infecting HEPG2 hepatoma cells; assay type: cell-based; conditions: HEPG2 cells
# Pb-infected mice = test: in vivo efficacy scouting assay against blood stages; set-up: species or system P. berghei; mice; conditions: Example 2: two mice, single 50 mg/kg oral dose in PEG400 on day 1 PE
# Protocol: The screening involved a single oral 50 mg/kg dose 1 day post infection (PI) and an assessment of parasitemia on days 3 PI and 6 PI (Table 6).
# The screening was performed by treating two infected mice with a single 50 mg/kg oral dose of test compound suspended in PEG400 on day 1 postexposure (PE) followed by assessing parasitemia on days 3 and 6 PE.
# [4] = aqueous solubility (LC/MS- or HPLC-based assay); assay type: physicochemical; conditions: aqueous solution (buffer not named), aqueous buffer, Example 2, at any given pH; read-out: solubility
# Description: Furthermore, to profile the properties of the piperazinyl-4(1H)-quinolones, and to identify potential limitations, aqueous solubility and lipophilicity log D were experimentally determined via LC/MS-based assays as described by the Manetsch laboratory previously^8,10,31,32 (Tables 9-12). Encouragingly, the piperazinyl-4(1H)-quinolones were much more soluble than the previously described phenoxyethoxy-4(1H)-quinolone analogues.^19 As expected, the solubility of all compounds was affected by pH, with better solubility under more acidic conditions.
# In parallel to testing the compounds for in vitro antimalarial activity, a limited structure-property relationship (SPR) study focusing on log D and aqueous solubility was conducted to assess potential physiochemical liabilities (FIG. 22). […] For these reasons, physicochemical properties were not strongly considered as selection criteria for in vivo efficacy studies.
# [5] = Plasmodium falciparum, read-out: EC50 W2 (nM)
# [6] = Plasmodium falciparum, TM90, read-out: EC50 TM90-C2B (nM)
# [7] = blood stage in vitro, strain W2
# [8] = blood stage in vitro, atovaquone-resistant strain TM90-C2B
Molecule,"EC50 [1, 5] [nM]",RI [2],"EC50 [2, 6] [nM]","EC50 W2 (nM) [1, 7]",also measured
"CCN(CC)CCCC(C)Nc1ccnc2cc(Cl)ccc12 (stereo not shown) [CQ, Chloroquine, reference compound]",–,–,–,–,"EC50 (J774 mammalian cells; J774, cytotoxicity, 96 well plate format, read-out: EC50 J774): 47.2 µM"
"COC(=O)c1c[nH]c2cc(OCCOc3ccccc3)ccc2c1=O [Compound 6a, Methyl 4-Oxo-7-(2-phenoxyethoxy)-1,4-dihydroquinoline-3-carboxylate]",2.8,26.3,–,–,EC50 Pb (nM) [3]: subnanomolar; EC50 ([3]; Plasmodium berghei): 0.286 nM
"COC(=O)c1c[nH]c2cc(OCCOc3ccccc3)c(OC)cc2c1=O [Compound 6aa, Methyl 6-Methoxy-4-oxo-7-(2-phenoxyethoxy)-1,4-dihydroquinoline-3-carboxylate]",–,1.60,–,–,–
"COC(=O)c1c[nH]c2cc(OCCOc3ccccc3)c(Cl)cc2c1=O [Compound 6ab, Methyl 6-Chloro-4-oxo-7-(2-phenoxyethoxy)-1,4-dihydroquinoline-3-carboxylate]",9.93,–,617,–,EC50 ([3]; Plasmodium berghei): 0.063 nM
"COC(=O)c1c[nH]c2cc(OCCOc3ccccc3)c(C)cc2c1=O [Compound 6ac, Methyl 6-Methyl-4-oxo-7-(2-phenoxyethoxy)-1,4-dihydroquinoline-3-carboxylate]",2.01,–,499,–,EC50 ([3]; Plasmodium berghei): 152 nM
"CCCCc1cc2c(=O)c(C#N)c[nH]c2cc1OCCOc1ccccc1 [Compound 6ad, 6-Butyl-4-oxo-7-(2-phenoxyethoxy)-1,4-dihydroquinoline-3-carbonitrile]",–,–,–,high double-digit nM range,–
"CCCCc1cc2c(=O)c(C(=O)OCC)c[nH]c2cc1OCCOc1ccccc1 [Compound 6af, Ethyl 6-Butyl-4-oxo-7-(2-phenoxyethoxy)-1,4-dihydroquinoline-3-carboxylate]",0.143,–,–,–,EC50 Pb (nM) [3]: subnanomolar
"CCCCc1cc2c(=O)c(C(C)=O)c[nH]c2cc1OCCOc1ccccc1 [Compound 6ag, 3-Acetyl-6-butyl-7-(2-phenoxyethoxy)quinolin-4(1H)-one]",9.67,–,–,–,–
"CCCCc1ccc2[nH]cc(C(=O)OC)c(=O)c2c1 [Compound 6c, Methyl 6-Butyl-4-oxo-1,4-dihydroquinoline-3-carboxylate]",1.58,141,222,–,EC50 Pb (nM) [3]: subnanomolar; EC50 ([3]; Plasmodium berghei): 0.819 nM
"COC(=O)c1c[nH]c2ccccc2c1=O [Compound 6d, Methyl 4-Oxo-1,4-dihydroquinoline-3-carboxylate]",–,–,–,retained respectable potency,"EC50 TM90-C2B (nM) [2, 8]: devoid of any activity"
"COC(=O)c1c[nH]c2ccc(OCc3ccccc3)cc2c1=O [Compound 6e, Methyl 6-(Benzyloxy)-4-oxo-1,4-dihydroquinoline-3-carboxylate]",11.6,–,1100,–,EC50 ([3]; Plasmodium berghei): 127 nM
"COC(=O)c1c[nH]c2ccc(OCCc3ccccc3)cc2c1=O [Compound 6f, Methyl 4-Oxo-6-phenethoxy-1,4-dihydroquinoline-3-carboxylate]",–,–,–,double-digit nM,–
"COC(=O)c1c[nH]c2ccc(OCCCc3ccccc3)cc2c1=O [Compound 6g, Methyl 4-Oxo-6-(3-phenylpropoxy)-1,4-dihydroquinoline-3-carboxylate]",–,–,–,double-digit nM,% inhibition on day 6 PE (Pb-infected mice): lack of significant parasitemia reduction
"COC(=O)c1c[nH]c2cc(OCCCc3ccccc3)ccc2c1=O [Compound 6j, Methyl 4-Oxo-7-(3-phenylpropoxy)-1,4-dihydroquinoline-3-carboxylate]",0.711,–,–,–,EC50 ([3]; Plasmodium berghei): 5.26 nM; % inhibition on day 6 PE (Pb-infected mice): 47.1%
"COC(=O)c1c[nH]c2cc(Cl)ccc2c1=O [Compound 6l, Methyl 7-Chloro-4-oxo-1,4-dihydroquinoline-3-carboxylate]",–,–,–,devoid of antimalarial activity,–
"COC(=O)c1c[nH]c2cc(-c3ccccc3)ccc2c1=O [Compound 6m, Methyl 4-Oxo-7-phenyl-1,4-dihydroquinoline-3-carboxylate]",–,–,–,devoid of antimalarial activity,–
"COC(=O)c1c[nH]c2cc(F)ccc2c1=O [Compound 6n, Methyl 7-Fluoro-4-oxo-1,4-dihydroquinoline-3-carboxylate]",26.2,–,395,–,–

Molecule,"EC50 [1, 5] [nM]",RI [2],"EC50 [2, 6] [nM]","EC50 W2 (nM) [1, 7]",also measured
"COC(=O)c1c[nH]c2ccc(-c3ccccc3)cc2c1=O [Compound 6u, Methyl 4-Oxo-6-phenyl-1,4-dihydroquinoline-3-carboxylate]",–,–,–,devoid of activity,–
"COC(=O)c1c[nH]c2cc(OCCOc3ccccc3)c(Br)cc2c1=O [Compound 6z, Methyl 6-Bromo-4-oxo-7-(2-phenoxyethoxy)-1,4-dihydroquinoline-3-carboxylate]",4.47,–,847,–,EC50 ([3]; Plasmodium berghei): 0.336 nM
"CCCCc1cc2c(=O)c(C(=O)O)c[nH]c2cc1OCCOc1ccccc1 [Compound 7b, 6-Butyl-4-oxo-7-(2-phenoxyethoxy)-1,4-dihydroquinoline-3-carboxylic Acid]",64,–,1110,–,EC50 ([3]; Plasmodium berghei): 0.267 nM
"Cc1[nH]c2cc(CN3CCN(c4ccc(C(F)(F)F)cc4)CC3)ccc2c(=O)c1Br [Compound 8aq, 3-Bromo-2-methyl-7-((4-(4-(trifluoromethyl)phenyl)piperazin-1-yl)methyl)quinolin-4(1H)-one]",121,0.79,95.4,–,"EC50 (J774 mammalian cells; J774, read-out: EC50 J774 (μM)): > 20 µM"
"Cc1[nH]c2cc(CN3CCN(c4ccc(C(F)(F)F)cc4)CC3)ccc2c(=O)c1Cl [Compound 8ar, 3-Chloro-2-methyl-7-((4-(4-(trifluoromethyl)phenyl)piperazin-1-yl)methyl)quinolin-4(1H)-one]",139,10.9,1510,–,"EC50 (J774 mammalian cells; J774, read-out: EC50 J774 (μM)): > 20 µM"
"COc1cc2c(=O)c(Br)c(C)[nH]c2cc1CN1CCN(c2ccc(C(F)(F)F)cc2)CC1 [Compound 8at, 3-Bromo-6-methoxy-2-methyl-7-((4-(4-(trifluoromethyl)phenyl)piperazin-1-yl)methyl)quinolin-4(1H)-one]",128,>39.1,> 5000,–,"EC50 (J774 mammalian cells; J774, read-out: EC50 J774 (μM)): > 20 µM"
"CCCCc1cc2c(=O)c(C(=O)NC)c[nH]c2cc1OCCOc1ccccc1 [Compound 13a, 6-Butyl-N-methyl-4-oxo-7-(2-phenoxyethoxy)-1,4-dihydroquinoline-3-carboxamide]",13.3,–,3980,–,–
"CCCCc1cc2c(=O)c(C(=O)NCCO)c[nH]c2cc1OCCOc1ccccc1 [Compound 13d, 6-Butyl-N-(2-hydroxyethyl)-4-oxo-7-(2-phenoxyethoxy)-1,4-dihydroquinoline-3-carboxamide]",–,–,–,–,solubility [4]: > 20 µM
"CCCCc1cc2c(=O)c(C(=O)NC(C)C)c[nH]c2cc1OCCOc1ccccc1 [Compound 13e, 6-Butyl-N-isopropyl-4-oxo-7-(2-phenoxyethoxy)-1,4-dihydroquinoline-3-carboxamide]",–,–,–,completely inactive,–
"CCCCc1cc2c(=O)c(I)c[nH]c2cc1OCCOc1ccccc1 [Compound 16b, 6-Butyl-3-iodo-7-(2-phenoxyethoxy)quinolin-4(1H)-one]",1.23,4.91,6.04,–,–
"CCCCc1cc2c(=O)c(Br)c[nH]c2cc1OCCOc1ccccc1 [Compound 16d, 3-Bromo-6-butyl-7-(2-phenoxyethoxy)quinolin-4(1H)-one]",4.64,–,48.7,–,–
"CCCCc1cc2c(=O)c(Cl)c(C)[nH]c2cc1OCCOc1ccccc1 [Compound 16e, 6-Butyl-3-chloro-2-methyl-7-(2-phenoxyethoxy)quinolin-4(1H)-one]",6.92,9.79,67.7,–,–
"C[C@H]1[C@@H](O)O[C@@H]2O[C@@]3(C)CC[C@H]4[C@H](C)CC[C@@H]1[C@@]24OO3 [DHA, dihydroartemisinin, reference compound]",–,–,–,–,"EC50 (J774 mammalian cells; J774, read-out: EC50 J774 (μM)): 1.53 µM"
"Methyl 4-oxo-7-(4-phenylpiperazin-1-yl)-1,4-dihydroquinoline-3-carboxylate [Compound 8a]",–,~1,–,inhibition against W2 was lost,–
"Methyl 6-methyl-4-oxo-7-(4-phenylpiperazin-1-yl)-1,4-dihydroquinoline-3-carboxylate [Compound 8c]",–,–,–,retained respectable potency,"EC50 TM90-C2B (nM) [2, 8]: devoid of any activity"
"Methyl 7-(4-benzylpiperazin-1-yl)-4-oxo-1,4-dihydroquinoline-3-carboxylate [Compound 8b]",–,1.31,–,–,"EC50 ([1]; blood stage in vitro, strain W2, read-out: EC50 W2): 328 nM; EC50 ([2]; blood stage in vitro, atovaquone-resistant strain TM90-C2B, read-out: EC50 TM90-C2B): 430 nM; EC50 [3]: 5.82 nM"

# Source: patent US10000452B1, “Quinolone-based compounds, formulations, and uses thereof” (University of South Florida, priority 2016, dated 2018)
